{"source": "paper PMC5823406", "about": "“Vehicle development, pharmacokinetics and toxicity of the anti-invasive agent 4-fluoro-3’,4’,5’-trimethoxychalcone in rodents” (PLoS ONE, 2018)", "key": {"MCF-7/6 [1]": {"tested_on": "MCF-7/6", "design": "method as in PMID 26204510", "conditions": "cited from earlier work"}, "[2]": {"test": "Liver microsome stability", "type": "in vitro ADME", "conditions": "liver microsomes (rat, Sprague-Dawley)", "excerpt": "(§1) Table 3 In vitro physicochemical, stability and metabolism data. | column: Value"}, "[3]": {"test": "LogD, partition coefficient n-octanol/PBS", "type": "physicochemical", "conditions": "pH 7.4, 100 μM", "excerpt": "as §1"}, "CYP 1A2": {"biological_target": "T1, CYP 1A2 (Homo sapiens, UniProt P05177)", "T1 sequence (P05177 1-516)": "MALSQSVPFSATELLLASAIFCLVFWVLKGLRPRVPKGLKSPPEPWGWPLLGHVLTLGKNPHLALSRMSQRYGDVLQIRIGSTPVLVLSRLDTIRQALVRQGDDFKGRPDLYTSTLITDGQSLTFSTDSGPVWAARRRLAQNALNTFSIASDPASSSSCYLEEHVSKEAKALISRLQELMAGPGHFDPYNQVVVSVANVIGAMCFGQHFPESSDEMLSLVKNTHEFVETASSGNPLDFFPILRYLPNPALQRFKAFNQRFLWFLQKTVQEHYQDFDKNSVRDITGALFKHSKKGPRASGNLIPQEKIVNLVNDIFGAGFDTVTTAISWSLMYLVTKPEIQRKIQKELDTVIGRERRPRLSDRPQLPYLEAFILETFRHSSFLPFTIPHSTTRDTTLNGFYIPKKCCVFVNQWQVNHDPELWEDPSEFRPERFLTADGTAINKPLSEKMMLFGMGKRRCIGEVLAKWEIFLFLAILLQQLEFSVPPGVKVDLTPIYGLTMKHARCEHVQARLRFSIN", "test": "CYP inhibition 1A2 (CEC substrate)", "type": "in vitro ADME", "conditions": "10 μM", "excerpt": "as §1"}, "[4]": {"test": "Solubility in vehicles, visual determination", "type": "physicochemical", "experimental": "C16 has low aqueous solubility, which limits the choice of preclinical formulations for in vivo studies. In this work, thirteen vehicles were evaluated for their applicability in single-dose studies (Table 1). For commonly used systems (entries a-e) visual determination of solubility was conducted, while for the more complex systems solubility was assessed by laser nephelometry."}, "ICR mice": {"tested_on": "ICR mice", "test": "Single-dose IP MTD study", "type": "in vivo", "conditions": "for Necropsy: gross findings: 24 h post dosing; for Weigt decrease (%): over 24 h", "experimental": "Male ICR mice (20–26 g), were obtained from BioLASCO Taiwan. Animals were kept in conventional cages with wood chip bedding. Space allocation for 3–5 animals was 30 x 19 x 13 cm. All animals were healthy at the start of the trial and maintained in a well-controlled temperature (20–24°C) and humidity (30%-70%) environment with 12 h light/dark cycles. Free access to a standard lab diet [MFG (Oriental Yeast Co., Ltd., Japan)] and autoclaved tap water were granted.\nA single PO and IP dose progression test was conducted in which animals were dosed at a minimum of 72- or 24-h intervals, respectively. C16 (vehicle: 10% Solutol HS-15 / 90% PEG 600) was administered by oral gavage at 10 mL/kg to randomly assigned groups of 2 male and 2 female mice, or by IP injection at 5 mL/kg to randomly assigned groups of 5 male mice. Animals received an initial dose of 10 mg/kg. If 50% of the animals survived for 72 h (PO) or 30 min (IP), the dose for the next cohort was increased. If one or more animals died, the dose for the next cohort was decreased. The next dose level was determined by the decision scheme in Fig 2.\nBody weights were recorded before dosing and at the 72- (PO) or 24-h (IP) time point. Gross necropsy was performed in all animals without tissue collection.\nC16 was administered IP at an initial dose of 10 mg/kg to a group of 5 ICR derived male mice weighing 22±2 g. The animals were then observed for presence of acute toxic symptoms and autonomic effects during the first 30 min and after 1 h, 2 h, 6 h and 24 h (Table S-Table U). The next dose level was determined based on whether more than 50% animals died within 30 min after dosing. Gross necropsy was performed in all animals without tissue collection .\nTable S. Body weights, evolution over 24 h, IP MTD study.\nCompound Dose Animal Body weight (g)\nTable T. Food consumption over 24 h, IP MTD study.\nCompound Dose Animal Food consumption (g)"}, "[5]": {"test": "Protein binding and recovery", "type": "in vitro ADME", "conditions": "Human plasma"}, "MCF-7/6 [6]": {"tested_on": "MCF-7/6", "test": "Chick heart invasion assay (3D confrontation culture)", "type": "cell-based", "conditions": "Homo sapiens, MCF7/6; read-out: projected C16 EC50 value", "excerpt": "Our laboratories have been characterizing and validating 4-fluoro-3’,4’,5’-trimethoxychalcone or C16 as a novel invasion inhibitor for the study and potential treatment of metastatic cancer (Fig 1). C16 has nanomolar anti-invasive potency in the chick heart and Matrigel in vitro invasion models against several human cancer cell lines (MCF-7/6 breast cancer, BLM melanoma and SK-OV-3 ovarian carcinoma). […] Given its discovery in a phenotypic model, the biological target of C16 is unknown. We have differentiated the molecular mechanism of action of C16 from that of other antimetastatic agents, and are currently characterizing its biochemical interactions in detail.\nFig 1 Structure and biological activity of C16."}, "[7]": {"test": "Metabolite profiling in whole blood", "type": "in vitro ADME", "conditions": "rat whole blood", "experimental": "C. Stability and metabolism\nFor details on ADME experiments not included underneath , please consult ref. [1].\nC.A. Whole blood stability\nColumn: Kinetex XB-C18 column, 2.6 µm (150 x2.1 mm)\nMobile phase A: H2O + 0.1% v/v Formic Acid\nMobile phase B: MeCN + 0.1% v/v Formic Acid\nAutosampler syringe volume: 100 µL\nWeak wash: MeOH:H2O 1:9 v/v\nStrong wash: MeOH:H2O 95:5 v/v\nTable K. Gradient program.\nMass spectrometric conditions\nModel: AB Sciex API5500 QTrap\nMode: Multiple ion monitoring (MIM)\nTable L. MIM (parent to parent transitions).\nThe areas and percentages for the parent and metabolites have been calculated using MIM data where parent to parent transitions have been used, and assume that each metabolite has the same point of ionisation and the sensitivity of the metabolite has not been affected by the biotransformation."}}, "note": "Values joined by “and” are separate entries in the source; they are usually repeats but may differ in a detail not shown here. Equal values may be shown once. “Also recorded” adds a separate entry of the source.", "data": [{"smiles": "COc1cc(C(=O)/C=C/c2ccc(F)cc2)cc(OC)c1OC", "note": "[C16, 4-fluoro-3’,4’,5’-trimethoxychalcone]", "values": [{"measurement": "Activity level in 3D confrontation culture (chick heart invasion assay, MCF-7/6)", "setting": "MCF-7/6 [1]", "value": 10, "unit": "nM"}, {"measurement": "half-life at 0.1 μM", "setting": "[2]", "value": 20, "unit": "min"}, {"measurement": "microsomal CLint at 0.1 μM", "setting": "[2]; read-out: Intr. clearance", "value": 339, "unit": "µL/min/mg"}, {"measurement": "LogD", "setting": "[3]", "value": 3.85}, {"measurement": "CYP inhibition 1A2 (CEC substrate)", "setting": "CYP 1A2", "value": "36 % inhibition of control"}, {"measurement": "Solubility of C16 in vehicle: Result", "setting": "[4]; 10% (DMSO / Cremophor EL 1:1) / 90% Milli-Q water, 2 mg/mL", "value": "Insoluble ^a"}, {"measurement": "Solubility of C16 in vehicle: Result", "setting": "[4]; 10% DMSO in normal saline, 1 mg/mL", "value": "Insoluble ^a"}, {"measurement": "Solubility of C16 in vehicle: Result", "setting": "[4]; 20% DMSO / 10% (DMSO / Cremophor EL 1:1) / 70% Milli-Q water, 2 mg/mL", "value": "Soluble ^a"}, {"measurement": "Solubility of C16 in vehicle: Result", "setting": "[4]; 50% DMSO in normal saline, 1 mg/mL", "value": "Insoluble ^a"}, {"measurement": "Solubility of C16 in vehicle: Result", "setting": "[4]; DMSO, 10 mg/mL", "value": "highly soluble; also recorded: Soluble ^a"}, {"measurement": "Deaths", "setting": "ICR mice; IP 10 mg/kg", "value": "0/5"}, {"measurement": "Necropsy: gross findings", "setting": "ICR mice; IP 10 mg/kg", "value": "none"}, {"measurement": "Autonomic: Hunch back", "setting": "ICR mice; IP 10 mg/kg, first 30 min", "value": "3/5"}, {"measurement": "Autonomic: Low body temperature", "setting": "ICR mice; IP 10 mg/kg, first 30 min", "value": "0/5"}, {"measurement": "Behavioral: Irritability: vocalization", "setting": "ICR mice; IP 10 mg/kg, first 30 min", "value": "0/5"}, {"measurement": "Behavioral: Pinna", "setting": "ICR mice; IP 10 mg/kg, first 30 min", "value": "0/5"}, {"measurement": "Neurologic: Low limb post", "setting": "ICR mice; IP 10 mg/kg, first 30 min", "value": "0/5"}, {"measurement": "Neurologic: Tremor: twitches", "setting": "ICR mice; IP 10 mg/kg, first 30 min", "value": "2/5"}, {"measurement": "Weigt decrease (%)", "setting": "ICR mice; IP 10 mg/kg", "value": 2.4, "unit": "%"}, {"measurement": "Deaths", "setting": "ICR mice; IP 30 mg/kg", "value": "0/5"}, {"measurement": "Necropsy: gross findings", "setting": "ICR mice; IP 30 mg/kg", "value": "none"}, {"measurement": "Autonomic: Hunch back", "setting": "ICR mice; IP 30 mg/kg, first 30 min", "value": "5/5"}, {"measurement": "Autonomic: Low body temperature", "setting": "ICR mice; IP 30 mg/kg, first 30 min", "value": "0/5"}, {"measurement": "Neurologic: Tremor: twitches", "setting": "ICR mice; IP 30 mg/kg, first 30 min", "value": "2/5"}, {"measurement": "Weigt decrease (%)", "setting": "ICR mice; IP 30 mg/kg", "value": 4.8, "unit": "%"}, {"measurement": "Deaths", "setting": "ICR mice; IP 50 mg/kg", "value": "0/5"}, {"measurement": "Necropsy: gross findings", "setting": "ICR mice; IP 50 mg/kg", "value": "none"}, {"measurement": "Autonomic: Hunch back", "setting": "ICR mice; IP 50 mg/kg, first 30 min", "value": "5/5"}, {"measurement": "Neurologic: Tremor: twitches", "setting": "ICR mice; IP 50 mg/kg, first 30 min", "value": "3/5"}, {"measurement": "Weigt decrease (%)", "setting": "ICR mice; IP 50 mg/kg", "value": 8.7, "unit": "%"}, {"measurement": "tolerated dose, single-dose IP administration", "setting": "ICR mice; male, ICR, mouse, in vivo, ip, 24 h", "value": "up to 50 mg/kg"}, {"measurement": "fraction unbound at 100 μM", "setting": "[5]", "value": 0.01}, {"measurement": "recovery at 100 μM", "setting": "[5]", "value": 90, "unit": "%"}, {"measurement": "EC50", "setting": "MCF-7/6 [6]", "value": "10 nM and 0.00632 µg/mL"}, {"measurement": "Area in sample (%)", "setting": "[7]; 0 min control", "value": 62.4, "unit": "%"}, {"measurement": "Area in sample (%)", "setting": "[7]; 15 min sample", "value": 52.2, "unit": "%"}]}]}
